Data: patent US10040781B2, “Tank-binding kinase inhibitor compounds” (Gilead Sciences, Inc., priority 2014, dated 2018)

How the values were obtained:
IKKε = IKKε (Homo sapiens (Human), UniProt Q14164); assay: IKKε TR-FRET enzymatic assay; format: biochemical; conditions: TR-FRET, 2×Km ATP; geometric mean of minimum four determinations; read-out: IKKe IC50
hJAK2 = hJAK2 (Homo sapiens (Human), UniProt O60674); assay: hJAK2 LANCE TR-FRET enzymatic assay; format: biochemical; conditions: read-out: JAK2 IC50
hJAK2, sequence (O60674 whole entry): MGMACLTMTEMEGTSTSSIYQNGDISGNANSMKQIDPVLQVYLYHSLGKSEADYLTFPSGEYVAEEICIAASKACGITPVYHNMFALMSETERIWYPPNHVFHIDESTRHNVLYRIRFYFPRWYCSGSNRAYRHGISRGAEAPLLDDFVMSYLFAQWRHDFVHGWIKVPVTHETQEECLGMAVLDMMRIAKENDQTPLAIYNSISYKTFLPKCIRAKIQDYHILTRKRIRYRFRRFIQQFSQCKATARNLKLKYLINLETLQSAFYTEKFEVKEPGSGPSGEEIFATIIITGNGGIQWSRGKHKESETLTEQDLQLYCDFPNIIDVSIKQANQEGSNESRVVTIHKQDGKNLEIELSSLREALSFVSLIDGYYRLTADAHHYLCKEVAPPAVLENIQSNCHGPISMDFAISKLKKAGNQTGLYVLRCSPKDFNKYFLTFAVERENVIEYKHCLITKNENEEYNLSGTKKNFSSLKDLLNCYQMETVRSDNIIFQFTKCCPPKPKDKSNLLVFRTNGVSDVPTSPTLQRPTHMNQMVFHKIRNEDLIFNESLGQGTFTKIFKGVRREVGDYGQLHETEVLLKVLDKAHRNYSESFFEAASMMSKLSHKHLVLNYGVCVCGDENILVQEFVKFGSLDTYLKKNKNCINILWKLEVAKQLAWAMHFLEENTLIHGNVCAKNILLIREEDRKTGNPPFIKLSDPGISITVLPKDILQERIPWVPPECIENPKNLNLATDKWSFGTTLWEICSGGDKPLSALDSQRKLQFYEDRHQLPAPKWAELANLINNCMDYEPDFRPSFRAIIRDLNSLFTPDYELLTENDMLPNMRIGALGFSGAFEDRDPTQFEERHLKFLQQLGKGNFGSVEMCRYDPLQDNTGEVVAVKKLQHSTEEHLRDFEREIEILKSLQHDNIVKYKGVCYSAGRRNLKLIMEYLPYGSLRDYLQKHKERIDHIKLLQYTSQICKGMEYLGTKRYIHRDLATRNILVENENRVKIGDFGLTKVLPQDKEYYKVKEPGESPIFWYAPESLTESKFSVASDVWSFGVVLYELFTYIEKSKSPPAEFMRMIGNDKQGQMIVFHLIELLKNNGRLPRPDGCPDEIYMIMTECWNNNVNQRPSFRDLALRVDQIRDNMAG

TBK1 = TBK1 (Homo sapiens (Human), UniProt Q9UHD2); assay: TBK1 TR-FRET enzymatic assay;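 note: phosphorylation of a biotinylated Ser/Thr peptide by purified full-length recombinant TBK1, read by TR-FRET after 240 min at 25 °C, IC50 is the geometric mean of at least four runs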
TBK1, sequence (Q9UHD2 whole entry): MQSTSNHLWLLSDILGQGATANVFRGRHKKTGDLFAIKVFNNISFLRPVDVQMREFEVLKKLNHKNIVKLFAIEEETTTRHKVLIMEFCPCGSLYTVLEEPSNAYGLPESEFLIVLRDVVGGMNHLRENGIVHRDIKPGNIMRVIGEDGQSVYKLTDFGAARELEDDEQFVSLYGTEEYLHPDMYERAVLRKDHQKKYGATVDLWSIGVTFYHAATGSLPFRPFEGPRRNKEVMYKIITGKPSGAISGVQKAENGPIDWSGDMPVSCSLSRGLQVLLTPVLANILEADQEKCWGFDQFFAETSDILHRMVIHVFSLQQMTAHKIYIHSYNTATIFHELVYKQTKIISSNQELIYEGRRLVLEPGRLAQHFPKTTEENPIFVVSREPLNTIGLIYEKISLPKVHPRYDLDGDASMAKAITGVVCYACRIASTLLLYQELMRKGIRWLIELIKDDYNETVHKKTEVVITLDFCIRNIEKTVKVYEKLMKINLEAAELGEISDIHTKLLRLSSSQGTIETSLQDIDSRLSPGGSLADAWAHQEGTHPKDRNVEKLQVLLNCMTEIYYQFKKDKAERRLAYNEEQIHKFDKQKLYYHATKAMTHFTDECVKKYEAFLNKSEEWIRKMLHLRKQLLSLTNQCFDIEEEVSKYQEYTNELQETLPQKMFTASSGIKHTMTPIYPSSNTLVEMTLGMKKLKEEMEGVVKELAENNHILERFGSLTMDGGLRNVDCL

IKKε, sequence (Q14164 whole entry): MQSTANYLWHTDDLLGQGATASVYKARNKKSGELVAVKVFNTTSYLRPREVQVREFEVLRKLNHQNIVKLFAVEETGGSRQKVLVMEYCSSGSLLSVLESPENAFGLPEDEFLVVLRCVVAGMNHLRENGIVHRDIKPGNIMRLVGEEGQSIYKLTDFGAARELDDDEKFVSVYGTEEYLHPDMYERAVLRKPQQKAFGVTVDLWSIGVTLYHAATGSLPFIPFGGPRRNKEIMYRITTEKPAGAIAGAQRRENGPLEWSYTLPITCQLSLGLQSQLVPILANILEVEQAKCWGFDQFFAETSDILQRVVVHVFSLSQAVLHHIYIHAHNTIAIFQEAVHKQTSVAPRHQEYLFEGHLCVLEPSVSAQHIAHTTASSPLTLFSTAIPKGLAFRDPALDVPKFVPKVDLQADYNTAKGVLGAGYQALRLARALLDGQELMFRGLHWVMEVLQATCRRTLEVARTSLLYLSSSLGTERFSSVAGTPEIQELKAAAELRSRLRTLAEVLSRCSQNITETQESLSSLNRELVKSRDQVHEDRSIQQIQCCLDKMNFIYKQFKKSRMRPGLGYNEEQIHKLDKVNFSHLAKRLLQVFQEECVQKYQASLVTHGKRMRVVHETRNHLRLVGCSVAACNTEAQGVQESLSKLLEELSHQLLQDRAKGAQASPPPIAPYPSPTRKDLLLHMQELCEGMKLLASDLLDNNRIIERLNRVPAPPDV

C[C@@H]1OC(=O)N[C@@H]1C(=O)N1CC[C@H](Oc2ccc(-c3ncnc(Nc4ccc(N5CCN(C6COC6)CC5)cc4)n3)cc2C#N)[C@H](F)C1 [Example 524, 2-(((3R,4S)-3-fluoro-1-((4S,5S)-5-methyl-2-oxooxazolidine-4-carbonyl)piperidin-4-yl)oxy)-5-(4-((4-(4-(oxetan-3-yl)piperazin-1-yl)phenyl)amino)-1,3,5-triazin-2-yl)benzonitrile]
IC50 (IKKε): 29 nM
IC50 (hJAK2): 959 nM
IC50 (TBK1): 7 nM

N#Cc1cc(-c2ncnc(Nc3ccc(N4CCN(C5COC5)CC4)cc3)n2)ccc1O[C@H]1CCN(C(=O)c2coc(=O)[nH]2)C[C@H]1F [Example 525, 2-(((3R,4S)-3-fluoro-1-(2-oxo-2,3-dihydrooxazole-4-carbonyl)piperidin-4-yl)oxy)-5-(4-((4-(4-(oxetan-3-yl)piperazin-1-yl)phenyl)amino)-1,3,5-triazin-2-yl)benzonitrile]
IC50 (IKKε): 3 nM
IC50 (hJAK2): 390 nM
IC50 (TBK1): 3 nM

Cc1n[nH]c(C(=O)N2CC[C@H](Oc3ccc(-c4ncnc(Nc5ccc(N6CCN(C7COC7)CC6)cc5)n4)cc3C#N)[C@H](F)C2)c1C [Example 526, 2-(((3R,4S)-1-(3,4-dimethyl-1H-pyrazole-5-carbonyl)-3-fluoropiperidin-4-yl)oxy)-5-(4-((4-(4-(oxetan-3-yl)piperazin-1-yl)phenyl)amino)-1,3,5-triazin-2-yl)benzonitrile]
IC50 (IKKε): 19 nM
IC50 (hJAK2): 447 nM
IC50 (TBK1): 9 nM

Cc1c[nH]c(C(=O)N2CC[C@H](Oc3ccc(-c4ncnc(Nc5ccc(N6CCN(C7COC7)CC6)cc5)n4)cc3C#N)[C@H](F)C2)n1 [Example 527, 2-(((3R,4S)-3-fluoro-1-(4-methyl-1H-imidazole-2-carbonyl)piperidin-4-yl)oxy)-5-(4-((4-(4-(oxetan-3-yl)piperazin-1-yl)phenyl)amino)-1,3,5-triazin-2-yl)benzonitrile]
IC50 (IKKε): 8 nM
IC50 (hJAK2): 323 nM
IC50 (TBK1): 5 nM

Cc1cn[nH]c1C(=O)N1CC[C@H](Oc2ccc(-c3ncnc(Nc4ccc(N5CCN(C6COC6)CC5)cc4)n3)cc2C#N)[C@H](F)C1 [Example 528, 2-(((3R,4S)-3-fluoro-1-(4-methyl-1H-pyrazole-5-carbonyl)piperidin-4-yl)oxy)-5-(4-((4-(4-(oxetan-3-yl)piperazin-1-yl)phenyl)amino)-1,3,5-triazin-2-yl)benzonitrile]
IC50 (IKKε): 20 nM
IC50 (hJAK2): 368 nM
IC50 (TBK1): 8 nM

N#Cc1cc(-c2ncnc(Nc3ccc(N4CCN(C5COC5)CC4)cc3)n2)ccc1O[C@H]1CCN(C(=O)[C@@H]2CC(=O)N2)C[C@H]1F [Example 529, 2-(((3R,4S)-3-fluoro-1-((S)-4-oxoazetidine-2-carbonyl)piperidin-4-yl)oxy)-5-(4-((4-(4-(oxetan-3-yl)piperazin-1-yl)phenyl)amino)-1,3,5-triazin-2-yl)benzonitrile]
IC50 (IKKε): 4 nM
IC50 (hJAK2): 356 nM
IC50 (TBK1): 3 nM

COc1cc(Nc2ncnc(-c3ccc(O[C@@H]4CCC(=O)NC4)c(C#N)c3)n2)ccc1N1CCN(C2COC2)CC1 [Example 531, (R)-5-(4-((3-methoxy-4-(4-(oxetan-3-yl)piperazin-1-yl)phenyl)amino)-1,3,5-triazin-2-yl)-2-((6-oxopiperidin-3-yl)oxy)benzonitrile]
IC50 (IKKε): 3 nM
IC50 (hJAK2): 55 nM
IC50 (TBK1): 4 nM

Cc1cc(Nc2ncnc(-c3ccc(O[C@H]4CCN(C(=O)CCO)C[C@H]4F)c(C#N)c3)n2)ccc1N1CCN(C2COC2)CC1 [Example 533, 2-(((3R,4S)-3-fluoro-1-(3-hydroxypropanoyl)piperidin-4-yl)oxy)-5-(4-((3-methyl-4-(4-(oxetan-3-yl)piperazin-1-yl)phenyl)amino)-1,3,5-triazin-2-yl)benzonitrile]
IC50 (IKKε): 7 nM
IC50 (hJAK2): 88 nM
IC50 (TBK1): 4 nM

Cc1cc(Nc2ncnc(-c3ccc(N4C[C@H](O)C[C@@H]4C)c(C#N)c3)n2)ccc1N1CCN(C2COC2)CC1 [Example 534, 2-((2S,4R)-4-hydroxy-2-methylpyrrolidin-1-yl)-5-(4-((3-methyl-4-(4-(oxetan-3-yl)piperazin-1-yl)phenyl)amino)-1,3,5-triazin-2-yl)benzonitrile]
IC50 (IKKε): 7 nM
IC50 (hJAK2): 32 nM
IC50 (TBK1): 4 nM

C[C@H]1CN(c2ccc(Nc3ncnc(-c4ccc(O[C@H]5CCN(C(=O)[C@@H]6CCC(=O)N6)C[C@H]5F)c(C#N)c4)n3)cc2)CCN1C1COC1 [Example 535, 2-(((3R,4S)-3-fluoro-1-((S)-5-oxopyrrolidine-2-carbonyl)piperidin-4-yl)oxy)-5-(4-((4-((S)-3-methyl-4-(oxetan-3-yl)piperazin-1-yl)phenyl)amino)-1,3,5-triazin-2-yl)benzonitrile]
IC50 (IKKε): 3 nM
IC50 (hJAK2): 904 nM
IC50 (TBK1): 3 nM

Cc1cc(Nc2ncnc(-c3ccc(O[C@H]4CCN(C(=O)[C@@H]5CCC(=O)N5)C[C@H]4F)c(C#N)c3)n2)ccc1N1CCN(C2COC2)CC1 [Example 536, 2-(((3R,4S)-3-fluoro-1-((S)-5-oxopyrrolidine-2-carbonyl)piperidin-4-yl)oxy)-5-(4-((3-methyl-4-(4-(oxetan-3-yl)piperazin-1-yl)phenyl)amino)-1,3,5-triazin-2-yl)benzonitrile]
IC50 (IKKε): 1 nM
IC50 (hJAK2): 101 nM
IC50 (TBK1): 2 nM

CC(=O)Nc1ccc(Nc2ncnc(-c3ccc(O[C@H]4CCN(C(=O)[C@@H]5CCC(=O)N5)C[C@H]4F)c(C#N)c3)n2)cn1 [Example 537, N-(5-((4-(3-cyano-4-(((3R,4S)-3-fluoro-1-((S)-5-oxopyrrolidine-2-carbonyl)piperidin-4-yl)oxy)phenyl)-1,3,5-triazin-2-yl)amino)pyridin-2-yl)acetamide]
IC50 (IKKε): 18 nM
IC50 (hJAK2): ≥ 1000 nM
IC50 (TBK1): 8 nM

CCOc1ccc(Nc2ncnc(-c3ccc(O[C@H]4CCN(C(=O)[C@@H]5CCC(=O)N5)C[C@H]4F)c(C#N)c3)n2)cn1 [Example 538, 5-(4-((6-ethoxypyridin-3-yl)amino)-1,3,5-triazin-2-yl)-2-(((3R,4S)-3-fluoro-1-((S)-5-oxopyrrolidine-2-carbonyl)piperidin-4-yl)oxy)benzonitrile]
IC50 (IKKε): 14 nM
IC50 (hJAK2): ≥ 1000 nM
IC50 (TBK1): 7 nM

C[C@H](O)C(=O)N1CC[C@H](Oc2ccc(-c3ncnc(Nc4cccc(CN5CCOCC5)c4)n3)cc2C#N)[C@H](F)C1 [Example 539, 2-(((3R,4S)-3-fluoro-1-((S)-2-hydroxypropanoyl)piperidin-4-yl)oxy)-5-(4-((3-(morpholinomethyl)phenyl)amino)-1,3,5-triazin-2-yl)benzonitrile]
IC50 (IKKε): 2 nM
IC50 (hJAK2): 519 nM
IC50 (TBK1): 3 nM

CC(=O)Nc1ccc(Nc2ncnc(-c3ccc(O[C@H]4CCN(C(=O)[C@H](C)O)C[C@H]4F)c(C#N)c3)n2)cn1 [Example 540, N-(5-((4-(3-cyano-4-(((3R,4S)-3-fluoro-1-((S)-2-hydroxypropanoyl)piperidin-4-yl)oxy)phenyl)-1,3,5-triazin-2-yl)amino)pyridin-2-yl)acetamide]
IC50 (IKKε): 21 nM
IC50 (hJAK2): ≥ 1000 nM
IC50 (TBK1): 20 nM

CCOc1ccc(Nc2ncnc(-c3ccc(O[C@H]4CCN(C(=O)[C@H](C)O)C[C@H]4F)c(C#N)c3)n2)cn1 [Example 541, 5-(4-((6-ethoxypyridin-3-yl)amino)-1,3,5-triazin-2-yl)-2-(((3R,4S)-3-fluoro-1-((S)-2-hydroxypropanoyl)piperidin-4-yl)oxy)benzonitrile]
IC50 (IKKε): 17 nM
IC50 (hJAK2): ≥ 1000 nM
IC50 (TBK1): 15 nM

C[C@@H]1CN(c2ccc(Nc3ncnc(-c4ccc(O[C@H]5CCN(C(=O)[C@@H]6CCC(=O)N6)C[C@H]5F)c(C#N)c4)n3)cc2)CCN1C1COC1 [Example 542, 2-(((3R,4S)-3-fluoro-1-((S)-5-oxopyrrolidine-2-carbonyl)piperidin-4-yl)oxy)-5-(4-((4-((R)-3-methyl-4-(oxetan-3-yl)piperazin-1-yl)phenyl)amino)-1,3,5-triazin-2-yl)benzonitrile]
IC50 (IKKε): 4 nM
IC50 (hJAK2): 363 nM
IC50 (TBK1): 6 nM

COc1cc(Nc2ncnc(-c3ccc(O[C@H]4CCN(C(=O)[C@@H]5CCC(=O)N5)C[C@H]4F)c(C#N)c3)n2)ccc1N1CCN(C2COC2)CC1 [Example 544, 2-(((3R,4S)-3-fluoro-1-((S)-5-oxopyrrolidine-2-carbonyl)piperidin-4-yl)oxy)-5-(4-((3-methoxy-4-(4-(oxetan-3-yl)piperazin-1-yl)phenyl)amino)-1,3,5-triazin-2-yl)benzonitrile]
IC50 (IKKε): 1 nM
IC50 (hJAK2): 44 nM
IC50 (TBK1): 2 nM

C[C@H](O)C(=O)N1CC[C@H](Oc2ccc(-c3ncnc(Nc4ccc5c(c4)CNC5)n3)cc2C#N)[C@H](F)C1 [Example 545, 2-(((3R,4S)-3-fluoro-1-((S)-2-hydroxypropanoyl)piperidin-4-yl)oxy)-5-(4-(isoindolin-5-ylamino)-1,3,5-triazin-2-yl)benzonitrile]
IC50 (IKKε): 1 nM
IC50 (hJAK2): 659 nM
IC50 (TBK1): 3 nM

COCC(=O)N1CC[C@H](Oc2ccc(-c3ncnc(Nc4ccc(N5CCN(C6COC6)CC5)cc4)n3)cc2C#N)[C@H](F)C1 [Example 546, 2-(((3R,4S)-3-fluoro-1-(2-methoxyacetyl)piperidin-4-yl)oxy)-5-(4-((4-(4-(oxetan-3-yl)piperazin-1-yl)phenyl)amino)-1,3,5-triazin-2-yl)benzonitrile]
IC50 (IKKε): 2 nM
IC50 (hJAK2): 492 nM
IC50 (TBK1): 2 nM

CO[C@@H](C)C(=O)N1CC[C@H](Oc2ccc(-c3ncnc(Nc4ccc(N5CCN(C6COC6)CC5)cc4)n3)cc2C#N)[C@H](F)C1 [Example 547, 2-(((3R,4S)-3-fluoro-1-((S)-2-methoxypropanoyl)piperidin-4-yl)oxy)-5-(4-((4-(4-(oxetan-3-yl)piperazin-1-yl)phenyl)amino)-1,3,5-triazin-2-yl)benzonitrile]
IC50 (IKKε): 36 nM
IC50 (hJAK2): ≥ 1000 nM
IC50 (TBK1): 11 nM
